Measurements published in patent publication US20240091203A1, “METHODS FOR TREATING NON-OBSTRUCTIVE HYPERTROPHIC CARDIOMYOPATHY” (Cytokinetics, Incorporated, priority 2022, published 2024).
“And” between values parts separate entries of the source, which are not always exact repeats. Identical values can stand only once. “Also recorded” adds a separate entry of the source.

Key:
healthy adults = assay: Phase 1 pharmacodynamics by echocardiography (LVEF and other parameters, PK/PD); assay type: in vivo, human
Protocol: Echocardiography. For PD assessments of LVEF, echocardiograms for the SAD and MAD cohorts were interpreted by the echocardiography core laboratory and used for all data analysis and dose level review decisions while immediate local interpretation of the echocardiograms was performed for safety monitoring. […] Echocardiograms on day 3 (48 h after dosing) were obtained only if the 24 h LVEF had not returned to near or above baseline, as determined by the investigator. In the MAD cohorts, echocardiograms were obtained on day −1, pre-dose on day 1, and at 1.5 h post dose on days 2, 4, and 9, and at 1.5, 24, and 72 h post dose on day 14 (for the 5-mg and 10-mg cohorts) or on day 17 (for the 7.5-mg cohort). Echocardiograms were obtained 3 days after the last dose (on day 17 or 20) only if the participant's prior LVEF was not near or above baseline, as determined by the investigator.
All participants who received ≥1 dose of study drug and had ≥1 pre-dose and ≥1 post-dose echocardiographic measurement were included in the PD analysis set. […] Descriptive statistics of the echocardiographic parameters were generated using SAS® Version 9.3 or higher.
Dose-response analysis was performed using analysis of covariance (ANCOVA) to identify the least-squares mean difference (aficamten minus placebo). To analyze the impact of drug dose on echocardiographic parameters in the SAD and MAD cohorts, an inferential analysis was conducted on the PD analysis set using linear mixed models for repeated-measures analysis of covariance (ANCOVA). The ANCOVA used baseline value as a covariate, included treatment, time-point, and time-point-by-treatment interaction as fixed effects, and change from baseline as the dependent variable. The unstructured variance-covariance structure was used, and the model accounted for the time-point repeated measures. The ANCOVA analysis was conducted separately for each study part and for each PD parameter. The least-squares means, the difference in least squares means (active minus placebo), and the associated 2-sided 95% CIs were presented for each comparison.
Analyses of concentration ‘bin’ and exposure-response were also performed using ANCOVA. SAS® PROC MIXED was used for all comparative analyses. […] A concentration bin ANCOVA was conducted using linear mixed models for repeated-measures analyses with concentration bin group as a fixed effect, baseline PD parameters as a covariate, change from baseline as the dependent variable, and a random intercept to adjust for the repeated measures. The unstructured variance-covariance structure was used. […] The ANCOVA compared the change in PD parameters between each bin versus the pooled placebo group.
The least-squares means, the difference in least squares means (bin group minus placebo), and the associated 2-sided 95% CIs were presented for each comparison. The ANCOVA analysis was conducted separately for each study part. For all time-points at which both PK data and PD measures were available, the time-points were pooled for the analysis. […] From least to greatest, the data were then divided into 5 groups of observations (‘bins’), each consisting of 20% of the data points. Each bin was treated as a separate group.
The above analysis was then repeated using concentration as a continuous variable to estimate the exposure-response trend. Both a random intercept effect and a random concentration effect were added to the ANCOVA. The estimate of the concentration slope, with corresponding 2-sided 95% CIs, and the ANCOVA analyses were presented for each study part.
For all time-points at which both PK data and PD measures were available, the time points were pooled for the analysis. A nominal significance level of 5% was used for statistical comparisons, without adjustment for multiplicity.

[1] = tested on: patients with symptomatic non-obstructive HCM (nHCM) or HCM with MVO; assay: Phase 2 trial (Example 2): echocardiography (LVEF, diastolic function); assay type: in vivo, human
Protocol: Echocardiograms obtained on day 1 of treatment, at weeks 2, 4, 6, and 10 of treatment, and two weeks after the last dose were analyzed for several key structural and physiologic metrics; measurements of N-terminal prohormone of brain natriuretic peptide (NT-proBNP), and cardiac troponin I were also monitored. Ambulatory cardiac monitoring was conducted one week before day 1 of treatment and at week 9.
The secondary PD endpoints of the study were: Slope of the relationship of the plasma concentration of CK-3773274 to the change from baseline in the resting LVEF.
Echocardiography parameters were evaluated by the core laboratory at baseline and during treatment at the Weeks 2, 4, 6, and 10 and after a 2-week washout at Week 12 (follow-up visit).
The exploratory PD endpoints included but were not limited to: (i) The relationship of plasma concentration ranges of CK-3773274 to LVEF, LVFS, global longitudinal strain (GLS); (ii) Observed values and change from baseline in the echocardiography parameters described in Table 13 and evaluated by the core laboratory during treatment at Weeks 2, 4, 6, 10, and 12; (iii) Change in NT-proBNP from baseline to Week 10; (iv) Change in hs-cTnI from baseline to Week 10; (v) Proportion of patients with LVEF ≥50% and ≥50% reduction from baseline NT-proBNP.

[2] = SAD 50 mg (n = 11), change from baseline at […], mean

How did the “relationship of LVEF to plasma concentration of aficamten” value (healthy adults; MAD cohorts, bin concentration or linear regression analysis) turn out when CCc1nc(-c2ccc3c(c2)CC[C@H]3NC(=O)c2cnn(C)c2)no1 [aficamten, (R)—N-(5-(5-ethyl-1,2,4-oxadiazol-3-yl)-2,3-dihydro-1H-inden-1-yl)-1-methyl-1H-pyrazole-4-carboxamide] was run?
The value was “did not reach statistical significance”.

And the “suppression of LVEF versus plasma concentration” value (healthy adults; MAD cohorts, plasma aficamten concentrations of ≤180 ng/ml)?
The value was “minimal suppression of LVEF”.

And the “participants with decreases in LVEF to <50%” value (healthy adults; Phase 1, rapidly reversible upon study drug discontinuation)?
The value was “Three participants”.

What about the “E (peak E wave velocity)” value (healthy adults; SAD 50 mg (n = 11), […], mean) of the same compound?
The value was 64 cm/s.

What about the “A (peak A wave velocity), CFB” value (healthy adults; [2]) of the same compound?
The value was 2.5 cm/s.

And the “E (peak E wave velocity), CFB” value (healthy adults; [2])?
Its value is -2.7 cm/s.

What about the “Heart rate, CFB” value (healthy adults; [2]) of the same compound?
Its value is 0.5 bpm.

What about the “IVCT, CFB” value (healthy adults; [2]) of the same compound?
The value was 0.4 ms.

And the “IVRT, CFB” value (healthy adults; [2])?
Its value is 0.5 ms.

What about the “LAV, CFB” value (healthy adults; [2]) of the same compound?
Its value is 0 mL.

And the “LV EDV, CFB” value (healthy adults; [2])?
The value was 6.6 mL.

And the “LV ESV, CFB” value (healthy adults; [2])?
The value was 8.1 mL.

What about the “LV ET, CFB” value (healthy adults; [2]) of the same compound?
Its value is 1.9 ms.

What about the “LV SV, CFB” value (healthy adults; [2]) of the same compound?
Its value is -6.2 mL.

What about the “LVEF, CFB” value (healthy adults; [2]) of the same compound?
The value was −5.8%.

What about the “e′ lateral, CFB” value (healthy adults; [2]) of the same compound?
Its value is -1.3 cm/s.

What about the “time after dosing at which LVEF <50% was noted” value (healthy adults; SAD 50 mg and 75 mg, 3 participants) of the same compound?
Its value is “approximately 1.5 h”.

And the “participants with absolute reduction in LVEF of ≥5% from baseline” value (healthy adults; SAD 1-mg cohort)?
The value was “no participants”.

What about the “participants with absolute reduction in LVEF of ≥5% from baseline” value (healthy adults; SAD 10-mg cohort) of the same compound?
Its value is “no participants”.

What about the “participants with absolute reduction in LVEF of ≥5% from baseline” value (healthy adults; SAD 25-mg cohort) of the same compound?
Its value is “no participants”.

And the “participants with reduction in LVEF to <50%” value (healthy adults; SAD 50-mg cohort, 2 of 11, core laboratory)?
Its value is 18%.

And the “reduction in LVEF from baseline, least-squares mean difference” value (healthy adults; SAD 50-mg cohort, […] post dose, p=0.0001)?
The value was 5.5%.

What about the “LVEF of the 2 participants with LVEF <50%” value (healthy adults; SAD 50-mg cohort, per core laboratory assessment) of the same compound?
The value was 48.2% and 45.5%.

And the “participants with reduction in LVEF to <50%” value (healthy adults; SAD 75-mg cohort, 1 of 1)?
The value was 100%.

And the “participants with LVEF <45%” value (healthy adults; SAD cohorts, core laboratory)?
The value was “Only the participant in the 75-mg cohort”.

And the “relationship of LVEF to plasma concentration of aficamten” value (healthy adults; SAD cohorts, highest bin 122 to 524 ng/ml p<0.0001, concentration-slope p=0.0027)?
The value was “statistically significant decrease in LVEF; also recorded: trend toward a decrease in LVEF”.

What about the “reduction in LVEF to <50%” value (healthy adults; any of the MAD cohorts, core laboratory) of the same compound?
Its value is “not observed”.

And the “time for reversal of decreases in LVEF to values <50%” value (healthy adults; following single doses)?
Its value is at most 6 h.

What about the “time for LVEF to return to baseline” value (healthy adults; participants whose LVEF fell below 50%) of the same compound?
Its value is at most 24 h.

And the LVEF after reduction (healthy adults; single dose of 75 mg, 1 participant)?
The LVEF after reduction was 34.1%.

What about the “reduction in LVEF” value (healthy adults; single participant, SAD 75 mg, […] post dose) of the same compound?
The value was 31.5%.

What about the “Doppler measures of diastolic function (lateral e′; lateral E/e′; septal E/e′)” value ([1]; baseline to week 10, second interim) of the same compound?
The value was “generally improved”.

What about the “change in LVEF from baseline to Week 10” value ([1]; second interim, N = 41) of the same compound?
Its value is −5.5%.
